Measurements reported in patent publication US20240140935A1, “NON-COVALENT DIMER CATION, SALT THEREOF, PREPARATION METHOD THEREOF, AND USE THEREOF AS ANTIOXIDANT” (SUZHOU PROTONATION CHAIN BIOTECHNOLOGY CO., LTD., priority 2022, published 2024).

Experiments:
[1] = test system: L02 human normal hepatocytes; test: Palmitate-induced non-alcoholic fatty liver disease cell model, levels of ROS, MDA, GSH, SOD and ATP in cell lysate; format: cell-based
Experimental: (§1) The salts of Example 1, Example 16, and Example 13 were taken as the compound of experimental groups, vitamin E was taken as the compound of control group. A blank group (without palmitate) and a model group (with palmitate but with neither the salt of the present application nor vitamin E) were also set.
L02 human normal hepatocytes were uniformly inoculated into a 96-well plate, about 5,000 cells per well. The cells were cultured in a complete DMEM for 6 h. After the cells were completely adhered to the wall, all the media were removed, 100 μL of serum-free medium containing 0.05 mg/mL palmitate was added to each well (for the blank group, a serum-free medium without palmitate), and the cells were cultured for 24 h.
Then, all the media were removed, 100 μL of serum-free DMEM containing […] compound of experimental groups or control group was added to each well (for the blank group and the model group, serum-free DMEM without the compound) according to the groups, and the cells were cultured for 24 h.
(§2) 50 μL of RIPA lysis buffer (strong) was added to each well to lyse the cells, and levels of reactive oxygen species, malondialdehyde, glutathione, superoxide dismutase, and adenosine triphosphate in the cells of each group were detected by using corresponding chemical reagents.

[2] = test system: L02 human normal hepatocytes; test: Carbon tetrachloride hepatotoxicity cell model, levels of ROS, MDA, GSH, SOD and ATP in cell lysate; format: cell-based
Experimental: as §1, with “carbon tetrachloride)” for “palmitate)”, “carbon tetrachloride” for “palmitate”
L02 human normal hepatocytes were uniformly inoculated into a 96-well plate, about 5,000 cells per well. The cells were cultured in a complete DMEM for 6 h. After the cells were completely adhered to the wall, all the media were removed, 100 μL of serum-free DMEM containing 0.02 mg/mL carbon tetrachloride (for the blank group, a serum-free medium without carbon tetrachloride) was added to each well, and the cells were cultured for 12 h. Then, all the media were removed, 100 μL of serum-free DMEM containing […] compound of experimental groups or control group was added to each well (for the blank group and the model group, serum-free DMEM without the compound) according to the groups, and the cells were cultured for 24 h.
as §2

vitamin E was tested, and the “level of ROS in the cells” value ([1]; FIG. 4 (a)) was “only slightly reduce”, the “level of MDA in the cells” value ([1]; FIG. 4 (b)) was “only slightly reduce” and the “level of GSH in the cells” value ([1]; FIG. 4 (c)) was “only slightly increase”. The “level of SOD in the cells” value ([1]; FIG. 4 (d)) was “only slightly increase”, the “level of ATP in the cells” value ([1]; FIG. 4 (e)) was “only partially increase” and the “level of ROS in the cells” value ([2]; FIG. 6 (a)) was “only slightly reduce”. For the same substance, the “level of MDA in the cells” value ([2]; FIG. 6 (b)) was “only slightly reduce”, the “level of GSH in the cells” value ([2]; FIG. 6 (c)) was “only slightly increase” and the “level of SOD in the cells” value ([2]; FIG. 6 (d)) was “only slightly increase”. The “level of ATP in the cells” value ([2]; FIG. 6 (e)) was “only partially increase”.
